One data set deals with FKBP5. As to the kind of experiment: qPCR FKBP5 expression in HeLa cells (GR transactivation). It is filed as cell-based, human. Conditions: beclomethasone 1 μM, Rg1 50 μM or combination. As for the experimental part:
(§1) HeLa (human cervical cancer) cells were cultured in Dulbecco's Modified Eagle's (DMEM) High Glucose (HG) medium without phenol red supplemented with 10% Fetal Calf Serum (FCS) and 10% Glutamax (Sigma-Aldrich). The cells were maintained at 37° C. and 5% CO2. At 24 h before adding the treatment, the medium was replaced by DMEM HG with 10% charcoal-inactivated serum and 10% Glutamax (Sigma-Aldrich). The cells were exposed to short- and long-term compound treatments. […] Subsequently, TNF-α (10 ng/ml) was added along with the compound treatments for 6 h (this last step was not added in the actinomycin-D and cycloheximide experiments).
(§2) To determine levels of gene expression in zebrafish larvae, 3 dpf larvae were used in both wounded and non-wounded conditions, and after short- and long-term treatments. Groups of 15 larvae were collected in TRIzol reagent (ThermoFisher) and total RNA was isolated using miRNeasy mini kit (Qiagen, Hilden, Germany). For experiments in HeLa cells, cells were seeded in 6 well plates and after treatment, the cells were removed from the wells using TRIzol reagent and mRNA was isolated using miRNeasy mini kit (Qiagen) according to the manufacturer's instructions. The RNA samples were DNAse-treated utilizing the DNA-free™ DNA Removal Kit (ThermoFisher Scientific). The cDNA synthesis was performed using the iScript cDNA synthesis kit (Bio-Rad Laboratories, Hercules, CA, USA) using 1 μg of RNA per sample. For qPCR, 10 μM of forward primer and 10 μM of reverse primer, 12.5 μl of IQ SYBR Green Supermix (Bio-Rad Laboratories), and 2 μl of cDNA were added to the qPCR reaction mixture. […] The qPCR reactions were performed on a MyiQ-single-color real-time PCR detection system (Bio-Rad Laboratories), with initial denaturation for 3 min, 95° C., and 40 cycles of 15 s at 95.5° C., 15 s at 60° C., and 30 s at 72° C. Cycle threshold values (Ct values, i.e. the cycle numbers at which a threshold value of the fluorescence intensity was reached) were determined for each sample. The gene expression level for each sample was normalized using the expression of ppial (peptidylprolyl isomerase Ab (cyclophilin A)) for zebrafish samples, and 18S rRNA for human cells. The fold change per sample (compared to the respective control group) was calculated using the […]Ct method.
Background: Real-time PCR tracks product formation cycle by cycle.

The test system of another data set is GR protein. The data set can be described thus: western blot GR protein level in HeLa cells. The class given is cell-based, human. Conditions: for GR protein level, short-term: 6 h; for GR protein level, short-term / GR protein level, long-term: beclomethasone 1 μM, Rg1 20 μM or combination; for GR protein level, long-term: 24 h; for GR protein level in presence of cycloheximide (protein stability): long-term, with cycloheximide (5 μg/ml). The procedure:
as §1
Western blots were conducted to determine GR protein levels in HeLa cells. The cells were seeded as described previously in 6-well plates. The cells were exposed to short- and long-term compound treatments. […] Cells were harvested using trypsin (0.25% (v/v) trypsin in PBS, no EDTA), washed twice with PBS, and centrifuged. After centrifuging for 3 min at 3,000 rpm, cell pellets were stored at −80° C. until use. Cells were homogenized in potassium phosphate (KPi lysis buffer; 25 mM K2HPO4—KH2PO4 (pH 6.5)+0.1% (v/v) Triton X-100 (Merck, Darmstadt, Germany)) by sonication (20% amplitude, 3 s on, 3 s off for 4 cycles), using a Vibra-Cell™ VCX 130 sonicator (Sonics, Newtown, CT, USA), while on ice. The total protein concentration of the homogenates was determined using the Quickstart Bradford protein assay (Bio-Rad Laboratories) and measured using an EMax® plus microplate reader (Molecular Devices, Sunnyvale, CA, USA). HeLa cell homogenates (30 μg protein in 10 μl) were added to 30 μl Laemmli sample buffer, vortexed, and, boiled for 5 min at 98° C. Of each sample, 15 μl was loaded in duplicate on a 12% gradient precast SDS-PAGE gel (Bio-Rad Laboratories), and run for approximately 2 h at 90 V (no duplicates were used in the cycloheximide experiment). The experiments were performed 4 times (6 times for the cycloheximide experiment). After running the gel, proteins were transferred to a nitrocellulose membrane (Thermo Fisher Scientific) by using Bio-Rad Power Pac Basic Mini Electrophoresis System at 100 V for 1 h. The blot was washed in a blocking buffer (Tris-buffered saline containing 0.1% Tween-20 (TBST) with 3% BSA) 3 times for 15 min at room temperature. A primary GR antibody (Glucocorticoid Receptor Recombinant Rabbit Monoclonal Antibody (2D8, ThermoFisher Scientific)) at a 1:500 dilution in TBST with 3% BSA was added to the blots and incubated overnight at 4° C. The next day, the blot was washed with TBST 3 times for 5 min. Then, an HRP-conjugated anti-rabbit secondary antibody (Sigma-Aldrich) at 1:2000 dilution in TBST with 3% BSA was added and incubated at room temperature for 2 h. The blot was washed 3 times for 5 min in TBST with 3% BSA and twice for 5 min with TBST. The blot was incubated with 10 ml of Pierce™ enhanced chemiluminescence (ECL) western blotting substrate (ThermoFisher Scientific) for 1-2 min. Chemiluminescence was detected using a ChemiDoc MP imager (Bio-Rad Laboratories) at an exposure time of 1 min. The blot was washed 3 times for 5 min in TBST, then washed for 1 h in TBST with 3% BSA. A β-actin antibody (MA1-91399, ThermoFisher Scientific) was added at a 1:2000 dilution in TBST with 3% BSA to the blot and incubated overnight at 4° C. The next day, the blot was washed 3 times for 5 min in TBST with 3% BSA. Then, an HRP-conjugated anti-mouse secondary antibody (Sigma-Aldrich) at a 1:2000 dilution in TBST with 3% BSA was added and incubated at room temperature for 2 h. Subsequently, the blot was washed 3 times for 5 min in TBST. The blot was incubated with 10 ml of ECL substrate for 1-2 min, and chemiluminescence was visualized. The intensities of the GR and β-actin bands were quantified using ImageJ software, and the GR level was normalized to the level of β-actin.
Background: In western blotting, separated proteins are transferred to a membrane and probed.

A further data set concerns il6. Conditions: previously shown, ref [17]; cited from earlier work.
For data set [1], the system named is il1b. Conditions: previously shown, ref [17]; cited from earlier work.
The test system of data set [2] is IL1B. As to the kind of experiment: qPCR IL1B expression in TNF-α-treated HeLa cells. The class given is cell-based, human. Conditions: for IL1B expression (TNF-α induced) / IL1B expression (TNF-α induced), short-term: 6 h; for IL1B expression (TNF-α induced): 0.01 μM beclomethasone, 20 μM Rg1 or combination. The procedure:
as §1, §2

A further data set has as its system IL8. As to the kind of experiment: qPCR IL8 expression in TNF-α-treated HeLa cells. The class given is cell-based, human. The following applies: for IL8 expression (TNF-α induced): 0.01 μM beclomethasone, 20 μM Rg1 or combination; for IL8 expression, long-term: 30 h. The procedure: as §1, §2
Another data set deals with zebrafish embryos. As to the kind of experiment: Fish Embryo Acute Toxicity Test (FET). Conditions: 0-120 hpf.
Another data set deals with GILZ. As to the kind of experiment: qPCR GILZ expression in HeLa cells (GR transactivation). The class given is cell-based, human. The following applies: beclomethasone 1 μM, Rg1 50 μM or combination. As for the experimental part:
as §1, §2

The mark [3] stands for this setting: beclomethasone 1 μM, Rg1 20 μM or combination.
Setting [4] is: beclomethasone 1 μM without or with Rg1 20 μM, TNF-α.

Protocol for zebrafish embryos: Fish Embryo Acute Toxicity Test (FET) was performed to determine the tolerated doses of the studied compounds. […] A range of three test concentrations (100, 120, and 150 μM) of Rg1, Rh1, and F1 and (25, 50, and 75M) of PPT was used. […] Stock solutions were made in DMSO, and final dilutions in egg water (60 μg/mL Instant Ocean Sea salts and 0.0025% methylene blue), such that the final DMSO concentration were 0.01%. The following controls were used: a negative control (nC, egg water), a solvent control (sC, 0.01% DMSO in egg water), and positive control (pC), 4 mg/L 3,4-dichloroaniline (Sigma-Aldrich, St. Louis, MO, USA) in egg water.
Embryos were collected around at 1.5 hpf and distributed over standard twenty-four well plates (10 embryos per well), with each well containing 2 mL of test solution. […] Five 24-well plates were prepared, each with 3 wells containing the Rg1, F1, or Rh1 solutions (100, 120, 150 μM), 3 wells containing the PPT (25, 50, and 75 μM), two for nC and sC, and one for pC (on each plate, 7 wells remained empty). All solutions were refreshed daily.
The plates were kept at a temperature between 26 and 27° C. and exposed to a 12 h light and 12 h dark cycle. At 96, and 120 hpf, the average survival rate (in %) for all experimental groups was determined. Additionally, hatching was recorded at 48 and 72 hpf. Survival rates for the studied compound and pC-treated groups from the five individual plates were averaged.

For `CC(C)=CCC[C@](C)(O[C@@H]1O[C@H](CO)[C@@H](O)[C@H](O)[C@H]1O)[C@H]1CC[C@]2(C)[C@@H]1[C@H](O)C[C@@H]1[C@@]3(C)CC[C@H](O)C(C)(C)[C@@H]3[C@@H](O[C@@H]3O[C@H](CO)[C@@H](O)[C@H](O)[C@H]3O)C[C@]12C` [Rg1, (3β,6α, 12β)-3,12-Dihydroxydammar-24-ene-6,20-diyl bis-β-D-glucopyranoside], in the data set with FKBP5, the “FKBP5 expression, long-term” value is on record as “did not affect the expression of these genes” and the “FKBP5 expression, short-term” value is “did not affect the expression of these genes”. Also, in the data set with GR protein, the “GR protein level, short-term” value is “did not affect the GR mRNA or GR protein level”; the “GR protein level, long-term” value is recorded as “did not affect the GR mRNA or GR protein level”; the “GR protein level in presence of cycloheximide (protein stability)” value was “protein stability is affected in a similar way as the mRNA levels by beclomethasone, and not Rg1”. Moreover, the “il6 expression after wounding” value with il6 is reported as “transrepressed”. In addition, the “il1b expression after wounding” value with il1b [1] is “transrepressed”. Also, the “IL1B expression (TNF-α induced)” value in the data set with IL1B [2] is on record as “slightly suppressed”. In the data set on IL1B [2] (Rg1 20, 100 and 500 μM), the “IL1B expression (TNF-α induced), short-term” value is listed as “caused a decrease in IL1B expression after short-term treatment”. Besides, in the data set on IL1B [2] (Rg1 20, 100 and 500 μM, 30 h), the “IL1B expression (TNF-α induced), long-term vs short-term” value is reported as “not significantly different after long-term treatment”. For the same molecule, the “IL8 expression (TNF-α induced)” value with IL8 (6 h) is listed as “slightly suppressed”. Moreover, the “IL8 expression, short-term” value in the data set on IL8 (beclomethasone 1 μM, Rg1 20 μM or combination, 6 h) was “slightly suppressed”. In addition, the “IL8 expression, long-term” value in the data set with IL8 (setting [3]) was “more strongly after long-term treatment”. Moreover, in the data set with zebrafish embryos, the “concentration until which no effects on hatching and survival were observed” value amounted to 100 µM; the “concentration with minimal effects on hatching and survival” value is 120 µM. For the same molecule, in the data set with GILZ, the “GILZ expression, long-term” value is listed as “did not affect the expression of these genes” and the “GILZ expression, short-term” value is “did not affect the expression of these genes”.

For the molecule `C[C@H]1C[C@H]2[C@@H]3CCC4=CC(=O)C=C[C@]4(C)[C@@]3(Cl)[C@@H](O)C[C@]2(C)[C@@]1(O)C(=O)CO` [beclomethasone, reference compound], in the data set with FKBP5, the “FKBP5 expression, long-term” value is reported as “increased over time” and the “FKBP5 expression, short-term” value was “strongly increased the expression of these genes after short-term treatment”. Further, in the data set on GR protein, the “GR protein level, short-term” value was “inhibited the expression of GR at both the mRNA and protein level”; the “GR protein level, long-term” value is “this inhibitory effect increased over time”; the “GR protein level in presence of cycloheximide (protein stability)” value was “protein stability is affected in a similar way as the mRNA levels by beclomethasone, and not Rg1”. For the same molecule, the “il6 expression after wounding” value with il6 is “transrepressed”. Also, the “il1b expression after wounding” value in the data set with il1b [1] is “transrepressed”. In the data set with IL1B [2], the “IL1B expression (TNF-α induced)” value is reported as “slightly suppressed”. Moreover, the “IL1B expression time course, short-term” value in the data set with IL1B [2] (beclomethasone 0.01 μM, TNF-α) is recorded as “hardly showed an effect”. Besides, in the data set on IL1B [2] (setting [4]), the “IL1B expression time course, long-term” value is given as “did not show a significant suppressive effect on the expression of IL1B” and the “IL1B expression time course, short-term” value was “exhibited a strong suppressive effect on the IL1B expression”. Further, in the data set with IL1B [2] (beclomethasone 0.1 and 1 μM), the “IL1B expression (TNF-α induced), short-term” value is reported as “strongly suppressed”. Moreover, in the data set with IL1B [2] (beclomethasone 0.1 and 1 μM, 30 h), the “IL1B expression (TNF-α induced), long-term” value was “a significant reduction in the suppressive effects of these high doses of beclomethasone was observed”. The “IL8 expression (TNF-α induced)” value in the data set with IL8 (6 h) is recorded as “slightly suppressed”. In addition, the “IL8 expression, long-term” value with IL8 (setting [3]) is reported as “the suppressive effects of beclomethasone were significantly reduced after long-term treatment”. In the data set with GILZ, the “GILZ expression, long-term” value was “reduced over time” and the “GILZ expression, short-term” value is “strongly increased the expression of these genes after short-term treatment”.

For the molecule `CC(C)=CCC[C@](C)(O)[C@H]1CC[C@]2(C)[C@@H]1[C@H](O)C[C@@H]1[C@@]3(C)CC[C@H](O)C(C)(C)[C@@H]3[C@@H](O[C@@H]3O[C@H](CO)[C@@H](O)[C@H](O)[C@H]3O)C[C@]12C` [Rh1], in the data set on zebrafish embryos, the “concentration until which no effects on hatching and survival were observed” value was determined as 100 µM; the “concentration with minimal effects on hatching and survival” value came out at 120 µM.

The values are drawn from patent US20260306525A1, “COMBINATION THERAPY GLUCOCORTICOIDS AND GINSENOSIDE” (FYTAGORAS B.V., priority 2023, published 2026).
